{
  "source": "ChEMBL document CHEMBL1201862",
  "about": "“PubChem BioAssay data set” (2004)",
  "experiment_in_all_cases": "NCI-60 cell line screen, 48 h",
  "key": {"SK-OV-3": {"tested_on": "SK-OV-3"}, "SN12C": {"tested_on": "SN12C"}, "PC-3": {"tested_on": "PC-3"}, "NCI-H23": {"tested_on": "NCI-H23"}, "HT-29": {"tested_on": "HT-29"}, "OVCAR-8": {"tested_on": "OVCAR-8"}, "MOLT-4": {"tested_on": "MOLT-4"}, "NCI-H522": {"tested_on": "NCI-H522"}, "HOP-62": {"tested_on": "HOP-62"}, "T47D": {"tested_on": "T47D"}, "OVCAR-5": {"tested_on": "OVCAR-5"}, "K562": {"tested_on": "K562"}, "UACC-257": {"tested_on": "UACC-257"}, "SK-MEL-28": {"tested_on": "SK-MEL-28"}, "SNB-19": {"tested_on": "SNB-19"}, "HL-60": {"tested_on": "HL-60"}, "RXF 393": {"tested_on": "RXF 393"}, "IGROV-1": {"tested_on": "IGROV-1"}, "NCI-H226": {"tested_on": "NCI-H226"}, "MDA-MB-231": {"tested_on": "MDA-MB-231"}, "786-0": {"tested_on": "786-0"}, "A549": {"tested_on": "A549"}, "MCF7": {"tested_on": "MCF7"}, "OVCAR-3": {"tested_on": "OVCAR-3"}, "HCC 2998": {"tested_on": "HCC 2998"}, "UO-31": {"tested_on": "UO-31"}, "HOP-92": {"tested_on": "HOP-92"}, "Hs-578T": {"tested_on": "Hs-578T"}, "A498": {"tested_on": "A498"}, "SF-539": {"tested_on": "SF-539"}, "EKVX": {"tested_on": "EKVX"}, "SF-268": {"tested_on": "SF-268"}, "CAKI-1": {"tested_on": "CAKI-1"}, "MDA-MB-435": {"tested_on": "MDA-MB-435"}, "NCI-H460": {"tested_on": "NCI-H460"}, "HCT-116": {"tested_on": "HCT-116"}, "NCI/ADR-RES": {"tested_on": "NCI/ADR-RES"}, "BT-549": {"tested_on": "BT-549"}, "UACC-62": {"tested_on": "UACC-62"}, "M14": {"tested_on": "M14"}, "ACHN": {"tested_on": "ACHN"}, "LOX IMVI": {"tested_on": "LOX IMVI"}, "SW-620": {"tested_on": "SW-620"}, "KM12": {"tested_on": "KM12"}, "DU-145": {"tested_on": "DU-145"}, "U-251": {"tested_on": "U-251"}, "OVCAR-4": {"tested_on": "OVCAR-4"}, "SK-MEL-5": {"tested_on": "SK-MEL-5"}, "SF-295": {"tested_on": "SF-295"}, "COLO 205": {"tested_on": "COLO 205"}, "HCT-15": {"tested_on": "HCT-15"}, "TK-10": {"tested_on": "TK-10"}, "SK-MEL-2": {"tested_on": "SK-MEL-2"}, "CCRF-CEM": {"tested_on": "CCRF-CEM"}},
  "note": "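Values below derive from 48-hour exposures of cells grown in 96-well plates, with endpoints linearly interpolated between the two concentrations bracketing the appropriate inhibition level. GI50 marks 50% less growth.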 Calls of active or inactive are those of the source. No stated cut-off is given here; in the data, active = GI50 up to about 1.1 µM and inactive = higher.",
  "data": [
    {"smiles": "O=S1(=O)c2ccccc2N(c2ccccc2)c2nnnn21", "values": [
      {"measurement": "GI50", "setting": "SK-OV-3", "result": "42.3 µM (inactive)"},
      {"measurement": "GI50", "setting": "SN12C", "result": "19.1 µM (inactive)"},
      {"measurement": "GI50", "setting": "PC-3", "result": "44.3 µM (inactive)"},
      {"measurement": "GI50", "setting": "NCI-H23", "result": "28.5 µM (inactive)"},
      {"measurement": "GI50", "setting": "HT-29", "result": "20.6 µM (inactive)"},
      {"measurement": "GI50", "setting": "OVCAR-8", "result": "30.1 µM (inactive)"},
      {"measurement": "GI50", "setting": "MOLT-4", "result": "19.5 µM (inactive)"},
      {"measurement": "GI50", "setting": "NCI-H522", "result": "17.6 µM (inactive)"},
      {"measurement": "GI50", "setting": "HOP-62", "result": "21 µM (inactive)"},
      {"measurement": "GI50", "setting": "T47D", "result": "31.8 µM (inactive)"},
      {"measurement": "GI50", "setting": "OVCAR-5", "result": "33.3 µM (inactive)"},
      {"measurement": "GI50", "setting": "K562", "result": "29.4 µM (inactive)"},
      {"measurement": "GI50", "setting": "UACC-257", "result": "42.3 µM (inactive)"},
      {"measurement": "GI50", "setting": "SK-MEL-28", "result": "22.4 µM (inactive)"},
      {"measurement": "GI50", "setting": "SNB-19", "result": "23.3 µM (inactive)"},
      {"measurement": "GI50", "setting": "HL-60", "result": "11.4 µM (inactive)"},
      {"measurement": "GI50", "setting": "RXF 393", "result": "19.9 µM (inactive)"},
      {"measurement": "GI50", "setting": "IGROV-1", "result": "32.3 µM (inactive)"},
      {"measurement": "GI50", "setting": "NCI-H226", "result": "36.1 µM (inactive)"},
      {"measurement": "GI50", "setting": "MDA-MB-231", "result": "25.6 µM (inactive)"},
      {"measurement": "GI50", "setting": "786-0", "result": "17.1 µM (inactive)"},
      {"measurement": "GI50", "setting": "A549", "result": "33.4 µM (inactive)"},
      {"measurement": "GI50", "setting": "MCF7", "result": "36.6 µM (inactive)"},
      {"measurement": "GI50", "setting": "OVCAR-3", "result": "18.5 µM (inactive)"},
      {"measurement": "GI50", "setting": "HCC 2998", "result": "17.7 µM (inactive)"},
      {"measurement": "GI50", "setting": "UO-31", "result": "39.5 µM (inactive)"},
      {"measurement": "GI50", "setting": "HOP-92", "result": "35 µM (inactive)"},
      {"measurement": "GI50", "setting": "Hs-578T", "result": "56.6 µM (inactive)"},
      {"measurement": "GI50", "setting": "A498", "result": "23.6 µM (inactive)"},
      {"measurement": "GI50", "setting": "SF-539", "result": "18.7 µM (inactive)"},
      {"measurement": "GI50", "setting": "EKVX", "result": "33 µM (inactive)"},
      {"measurement": "GI50", "setting": "SF-268", "result": "34.7 µM (inactive)"},
      {"measurement": "GI50", "setting": "CAKI-1", "result": "17.6 µM (inactive)"},
      {"measurement": "GI50", "setting": "MDA-MB-435", "result": "29.4 µM (inactive)"},
      {"measurement": "GI50", "setting": "NCI-H460", "result": "31.3 µM (inactive)"},
      {"measurement": "GI50", "setting": "HCT-116", "result": "26.4 µM (inactive)"},
      {"measurement": "GI50", "setting": "NCI/ADR-RES", "result": "31.4 µM (inactive)"},
      {"measurement": "GI50", "setting": "BT-549", "result": "22.8 µM (inactive)"},
      {"measurement": "GI50", "setting": "UACC-62", "result": "15.7 µM (inactive)"},
      {"measurement": "GI50", "setting": "M14", "result": "20.9 µM (inactive)"},
      {"measurement": "GI50", "setting": "ACHN", "result": "29.4 µM (inactive)"},
      {"measurement": "GI50", "setting": "LOX IMVI", "result": "16.7 µM (inactive)"},
      {"measurement": "GI50", "setting": "SW-620", "result": "22.3 µM (inactive)"},
      {"measurement": "GI50", "setting": "KM12", "result": "29.4 µM (inactive)"},
      {"measurement": "GI50", "setting": "DU-145", "result": "34.5 µM (inactive)"},
      {"measurement": "GI50", "setting": "U-251", "result": "32.7 µM (inactive)"},
      {"measurement": "GI50", "setting": "OVCAR-4", "result": "16.7 µM (inactive)"},
      {"measurement": "GI50", "setting": "SK-MEL-5", "result": "34.4 µM (inactive)"},
      {"measurement": "GI50", "setting": "SF-295", "result": "47 µM (inactive)"},
      {"measurement": "GI50", "setting": "COLO 205", "result": "22.5 µM (inactive)"},
      {"measurement": "GI50", "setting": "HCT-15", "result": 12.6, "unit": "µM"},
      {"measurement": "GI50", "setting": "TK-10", "result": "38.5 µM (inactive)"},
      {"measurement": "GI50", "setting": "SK-MEL-2", "result": "40.4 µM (inactive)"},
      {"measurement": "GI50", "setting": "CCRF-CEM", "result": "3.86 µM (inactive)"}
    ]}
  ]
}
